Assay results as given in patent US20260159512A1, “BCAT2 INHIBITORS” (AGIOS PHARMACEUTICALS, INC., priority 2021, published 2026).

Legend:
hBCAT1 = biological target: T1, hBCAT1 (Homo sapiens, UniProt P54687); experiment: BCAT1 in vitro enzyme inhibition assay (resazurin/diaphorase-coupled fluorescence); format: biochemical; settings: average where tested multiple times
T1 sequence (P54687 1-386): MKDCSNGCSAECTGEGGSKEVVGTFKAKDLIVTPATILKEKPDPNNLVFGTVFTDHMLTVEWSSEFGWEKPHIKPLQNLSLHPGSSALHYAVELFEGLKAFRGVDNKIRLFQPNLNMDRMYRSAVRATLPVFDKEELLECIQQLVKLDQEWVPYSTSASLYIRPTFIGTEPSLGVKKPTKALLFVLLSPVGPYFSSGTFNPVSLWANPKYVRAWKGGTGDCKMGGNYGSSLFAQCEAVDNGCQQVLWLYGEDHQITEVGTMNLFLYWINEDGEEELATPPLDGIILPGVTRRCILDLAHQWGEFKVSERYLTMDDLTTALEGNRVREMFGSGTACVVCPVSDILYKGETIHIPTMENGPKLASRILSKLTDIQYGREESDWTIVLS
Description: BCAT1 In Vitro Enzyme Inhibition Assay
Meanwhile the Substrate Mix was prepared.
Test Compound Preparation:
Test compounds were prepared at 50× final concentration in DMSO, 1 to 3 dilutions were made for 10 points. The compounds were added to the assay as a 1 to 50 dilution (1 μL in 50 μL) to yield a top assay final concentration of 100 μM, decreasing 3-fold for 10 points. […] All tests were performed in technical duplicate.
Where a compound was tested multiple times, the average value of the tests is reported.

BCAT2 = biological target: T2, BCAT2 (Homo sapiens, UniProt O15382); experiment: BCAT2 in vitro enzyme inhibition assay (resazurin/diaphorase-coupled fluorescence); format: biochemical; settings: average where tested multiple times
T2 sequence (O15382 28-392): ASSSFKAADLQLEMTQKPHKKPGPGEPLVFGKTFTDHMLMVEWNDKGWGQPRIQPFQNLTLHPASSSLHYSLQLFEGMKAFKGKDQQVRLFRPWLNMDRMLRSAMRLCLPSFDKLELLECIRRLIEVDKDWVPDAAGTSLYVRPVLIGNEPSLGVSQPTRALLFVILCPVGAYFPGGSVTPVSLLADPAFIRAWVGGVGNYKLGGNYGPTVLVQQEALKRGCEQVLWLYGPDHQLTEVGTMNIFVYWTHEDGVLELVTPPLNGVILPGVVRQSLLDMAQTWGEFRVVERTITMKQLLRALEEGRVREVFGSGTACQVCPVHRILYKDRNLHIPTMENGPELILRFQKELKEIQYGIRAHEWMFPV
Outline: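 Coupled fluorescence readout: glutamate formed from L-leucine/α-ketoglutarate transamination drives GDH/NAD/diaphorase reduction of resazurin (Ex 540/Em 590). Human BCAT2 was first exposed 1 h at room temperature to compound, top final 100 μM in 3-fold, 10-point series; substrate reaction ran 1 h before SDS quench, in technical duplicate with DMSO max and enzyme-free min controls.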

## CC(C)(O)c1cnn(-c2cc3c(cn2)nc(-c2ccccn2)n3[C@@H]2CCC[C@H](NC(=O)c3ncc(C(F)F)s3)C2)n1 [Example 70, 5-(difluoromethyl)-N-((1S,3R)-3-(6-(4-(2-hydroxypropan-2-yl)-2H-1,2,3-triazol-2-yl)-2-(pyridin-2-yl)-1H-imidazo[4,5-c]pyridin-1-yl)cyclohexyl)thiazole-2-carboxamide]
hBCAT1
  IC50: > 5000 nM
BCAT2
  IC50: ≤ 100 nM

## CC(C)(O)c1nc2cnc(-n3cncn3)cc2n1[C@@H]1CCC[C@H](NC(=O)c2ccc(Br)s2)C1 [Example 92, 5-bromo-N-((1S,3R)-3-(2-(2-hydroxypropan-2-yl)-6-(1H-1,2,4-triazol-1-yl)-1H-imidazo[4,5-c]pyridin-1-yl)cyclohexyl)thiophene-2-carboxamide]
hBCAT1
  IC50: > 5000 nM
BCAT2
  IC50: > 1000 nM

## O=C(NC1CCC(n2c(-c3ccccn3)nc3cnc(-n4nccn4)cc32)C1)c1ccc(Br)s1 (stereo not shown) [Example 93, 5-bromo-N-(3-(2-(pyridin-2-yl)-6-(2H-1,2,3-triazol-2-yl)-1H-imidazo[4,5-c]pyridin-1-yl)cyclopentyl)thiophene-2-carboxamide]
hBCAT1
  IC50: > 5000 nM
BCAT2
  IC50: 100 to 500 nM

## O=C(NC1CCC(n2c(-c3ccccn3)nc3cnc(-n4ccnn4)cc32)C1)c1ccc(Br)s1 (stereo not shown) [Example 94, 5-bromo-N-(3-(2-(pyridin-2-yl)-6-(1H-1,2,3-triazol-1-yl)-1H-imidazo[4,5-c]pyridin-1-yl)cyclopentyl)thiophene-2-carboxamide]
hBCAT1
  IC50: > 5000 nM
BCAT2
  IC50: > 1000 nM

## O=C(N[C@H]1CCC[C@@H](n2c(-c3ccccn3)nc3cc(-n4cncn4)ncc32)C1)c1ccc(Br)s1 [Example 150, 5-bromo-N-((1S,3R)-3-(2-(pyridin-2-yl)-6-(1H-1,2,4-triazol-1-yl)-3H-imidazo[4,5-c]pyridin-3-yl)cyclohexyl)thiophene-2-carboxamide]
hBCAT1
  IC50: > 5000 nM
BCAT2
  IC50: 500 to 1000 nM

## O=C(N[C@H]1CCC[C@@H](n2c(-c3ccccn3)nc3cc(-n4nccn4)ncc32)C1)c1ccc(Br)s1 [Example 151, 5-bromo-N-((1S,3R)-3-(2-(pyridin-2-yl)-6-(2H-1,2,3-triazol-2-yl)-3H-imidazo[4,5-c]pyridin-3-yl)cyclohexyl)thiophene-2-carboxamide]
hBCAT1
  IC50: > 5000 nM
BCAT2
  IC50: ≤ 100 nM

## C#Cc1ccc(C(=O)N[C@H]2CCC[C@@H](n3c(-c4ccccn4)nc4cc(-c5cnco5)ncc43)C2)s1 [Example 153, 5-ethynyl-N-((1S,3R)-3-(6-(oxazol-5-yl)-2-(pyridin-2-yl)-3H-imidazo[4,5-c]pyridin-3-yl)cyclohexyl)thiophene-2-carboxamide]
hBCAT1
  IC50: > 5000 nM
BCAT2
  IC50: 100 to 500 nM

## O=C(N[C@H]1CCC[C@@H](n2c(-c3ccccn3)nc3cc(-c4cnco4)ncc32)C1)c1ccc(Br)s1 [Example 154, 5-bromo-N-((1S,3R)-3-(6-(oxazol-5-yl)-2-(pyridin-2-yl)-3H-imidazo[4,5-c]pyridin-3-yl)cyclohexyl)thiophene-2-carboxamide]
hBCAT1
  IC50: > 5000 nM
BCAT2
  IC50: 500 to 1000 nM

## O=C(NC1CCCC(n2c(-c3ccccn3)nc3cc(-c4ncon4)ncc32)C1)c1ccc(Br)s1 (stereo not shown) [Example 155, N-(3-(6-(1,2,4-oxadiazol-3-yl)-2-(pyridin-2-yl)-3H-imidazo[4,5-c]pyridin-3-yl)cyclohexyl)-5-bromothiophene-2-carboxamide]
hBCAT1
  IC50: 1000 to 5000 nM
BCAT2
  IC50: ≤ 100 nM

## Cn1cc(-c2cc3nc(-c4ccccn4)n(C4CCCC(NC(=O)c5ccc(Br)s5)C4)c3cn2)cn1 (stereo not shown) [Example 156, 5-bromo-N-(3-(6-(1-methyl-1H-pyrazol-4-yl)-2-(pyridin-2-yl)-3H-imidazo[4,5-c]pyridin-3-yl)cyclohexyl)thiophene-2-carboxamide]
hBCAT1
  IC50: > 5000 nM
BCAT2
  IC50: > 1000 nM

## O=C(NC1CCCC(n2c(-c3ccccn3)nc3cc(-c4nnco4)ncc32)C1)c1ccc(Br)s1 (stereo not shown) [Example 157, N-(3-(6-(1,3,4-oxadiazol-2-yl)-2-(pyridin-2-yl)-3H-imidazo[4,5-c]pyridin-3-yl)cyclohexyl)-5-bromothiophene-2-carboxamide]
hBCAT1
  IC50: 1000 to 5000 nM
BCAT2
  IC50: ≤ 100 nM

## C[C@@H]1CCCN1c1cc2c(cn1)nc(-c1ccccc1F)n2[C@@H]1CCC[C@H](NC(=O)c2ncc(Cl)s2)C1 [Example 195, 5-chloro-N-((1S,3R)-3-(2-(2-fluorophenyl)-6-((R)-2-methylpyrrolidin-1-yl)-1H-imidazo[4,5-c]pyridin-1-yl)cyclohexyl)thiazole-2-carboxamide]
hBCAT1
  IC50: 1000 to 5000 nM
BCAT2
  IC50: 100 to 500 nM

## CC(C)Cc1nc2cnc(-c3ccccc3F)cc2n1[C@@H]1CCC[C@H](NC(=O)c2ncc(Cl)s2)C1 [Example 206, 5-chloro-N-((1S,3R)-3-(6-(2-fluorophenyl)-2-isobutyl-1H-imidazo[4,5-c]pyridin-1-yl)cyclohexyl)thiazole-2-carboxamide]
hBCAT1
  IC50: > 5000 nM
BCAT2
  IC50: 100 to 500 nM

## O=C(N[C@H]1CCC[C@@H](n2c(-c3ccccc3F)nc3cnc(-c4c(F)cccc4F)cc32)C1)c1ncc(Cl)s1 [Example 207, 5-chloro-N-((1S,3R)-3-(6-(2,6-difluorophenyl)-2-(2-fluorophenyl)-1H-imidazo[4,5-c]pyridin-1-yl)cyclohexyl)thiazole-2-carboxamide]
hBCAT1
  IC50: > 5000 nM
BCAT2
  IC50: 100 to 500 nM

## Cn1ccc(Oc2cc3c(cn2)nc(-c2ncccc2F)n3[C@@H]2CCC[C@H](NC(=O)c3ncc(C(F)F)s3)C2)n1 [Example 268, 5-(difluoromethyl)-N-((1S,3R)-3-(2-(3-fluoropyridin-2-yl)-6-((1-methyl-1H-pyrazol-3-yl)oxy)-1H-imidazo[4,5-c]pyridin-1-yl)cyclohexyl)thiazole-2-carboxamide]
hBCAT1
  IC50: > 5000 nM
BCAT2
  IC50: 500 to 1000 nM

## CC(=O)N1CC(NC(=O)c2ccc(Br)s2)CC(n2c(-c3ccccn3)nc3cc(-c4nnco4)ccc32)C1 (stereo not shown) [Example 282, N-(5-(5-(1,3,4-oxadiazol-2-yl)-2-(pyridin-2-yl)-1H-benzo[d]imidazol-1-yl)-1-acetylpiperidin-3-yl)-5-bromothiophene-2-carboxamide]
hBCAT1
  IC50: > 5000 nM
BCAT2
  IC50: 100 to 500 nM

## CC(=O)N1CC(NC(=O)c2ccc(Br)s2)CC(n2c(-c3ccccn3)nc3cc(-c4ncon4)ccc32)C1 (stereo not shown) [Example 284, N-(5-(5-(1,2,4-oxadiazol-3-yl)-2-(pyridin-2-yl)-1H-benzo[d]imidazol-1-yl)-1-acetylpiperidin-3-yl)-5-bromothiophene-2-carboxamide]
hBCAT1
  IC50: 1000 to 5000 nM
BCAT2
  IC50: ≤ 100 nM

## CC(=O)N1CC(NC(=O)c2ccc(Br)s2)CC(n2c(-c3ccccn3)nc3ccc(C#N)cc32)C1 (stereo not shown) [Example 289, N-(1-acetyl-5-(6-cyano-2-(pyridin-2-yl)-1H-benzo[d]imidazol-1-yl)piperidin-3-yl)-5-bromothiophene-2-carboxamide]
hBCAT1
  IC50: > 5000 nM
BCAT2
  IC50: 100 to 500 nM

## CNC(=O)c1cc2nc(-c3ccccn3)n(C3CC(NC(=O)c4ccc(Br)s4)CN(C)C3)c2cc1OC (stereo not shown) [Example 290, 1-(5-(5-bromothiophene-2-carboxamido)-1-methylpiperidin-3-yl)-6-methoxy-N-methyl-2-(pyridin-2-yl)-1H-benzo[d]imidazole-5-carboxamide]
hBCAT1
  IC50: > 5000 nM
BCAT2
  IC50: ≤ 100 nM

## C#Cc1ccc(C(=O)NC2CC(n3c(-c4ccccc4F)nc4cc(C(=O)NC)c(OC)cc43)CN(C)C2)s1 (stereo not shown) [Example 292, 1-(5-(5-ethynylthiophene-2-carboxamido)-1-methylpiperidin-3-yl)-2-(2-fluorophenyl)-6-methoxy-N-methyl-1H-benzo[d]imidazole-5-carboxamide]
hBCAT1
  IC50: 1000 to 5000 nM
BCAT2
  IC50: ≤ 100 nM

## CNC(=O)c1ccc2c(c1)nc(-c1ccccn1)n2C1CC(NC(=O)c2ccc(Br)s2)CN(C(N)=O)C1 (stereo not shown) [Example 293, 1-(5-(5-bromothiophene-2-carboxamido)-1-carbamoylpiperidin-3-yl)-N-methyl-2-(pyridin-2-yl)-1H-benzo[d]imidazole-5-carboxamide]
hBCAT1
  IC50: 1000 to 5000 nM
BCAT2
  IC50: ≤ 100 nM

## O=C(N[C@H]1CCC[C@@H](n2c(-c3ncccc3F)nc3cnc(N4CCC4)cc32)C1)c1ccc(Br)s1 [Example 300]
hBCAT1
  IC50: > 5000 nM
BCAT2
  IC50: > 1000 nM

## O=C(N[C@H]1CCC[C@@H](n2c(-c3ccccc3F)nc3cnc(N4CCC4)cc32)C1)c1ccc(Br)s1 [Example 301, N-((1S,3R)-3-(6-(azetidin-1-yl)-2-(2-fluorophenyl)-1H-imidazo[4,5-c]pyridin-1-yl)cyclohexyl)-5-bromothiophene-2-carboxamide]
hBCAT1
  IC50: > 5000 nM
BCAT2
  IC50: > 1000 nM
